In patent US20090076044A1, “VEGFR INHIBITORS CONTAINING A ZINC BINDING MOIETY” (priority 2007, published 2009):
pIC50: −log10 of the molar value.

Tests used:
human c-Kit = biological target: T1, human c-Kit (Homo sapiens, UniProt P10721); assay: c-Kit kinase assay (HTScan Receptor Kinase Assay Kit, DELFIA); type: biochemical; conditions: 200 μM ATP
T1 construct: human c-Kit (Thr544-Val976); purchased Cell Signaling Technologies; host or cells: baculovirus expression system
Experimental: (f) An In Vitro Assay which Determines the Ability of a Test Compound to Inhibit c-Kit Kinase.
The ability of compounds to inhibit c-Kit tyrosine kinase activity was assayed using HTScan™ Receptor Kinase Assay Kits (Cell Signaling Technologies, Danvers, Mass.). c-Kit tyrosine kinase is obtained in partially purified form from GST-kinase fusion protein which is produced using a baculovirus expression system from a construct expressing human c-Kit (Thr544-Val976) with an amino-terminal GST tag. The protein was purified by one-step affinity chromatography using glutathione-agarose. An anti-phosphotyrosine monoclonal antibody, P-Tyr-100, is used to detect phosphorylation of biotinylated substrate peptide KDR (Tyr996). Enzymatic activity was tested in 60 mM HEPES, 5 mM MgCl2 5 mM MnCl2 200 μM ATP, 1.25 mM DTT, 3 μM Na3VO4, 1.5 mM peptide, and 50 ng c-Kit. Bound antibody was detected using the DELFIA system (PerkinElmer, Wellesley, Mass.) consisting of DELFIA® Europium-labeled Anti-mouse IgG (PerkinElmer, #AD0124), DELFIA® Enhancement Solution (PerkinElmer, #1244-105), and a DELFIA® Streptavidin coated, 96-well Plate (PerkinElmer, AAAND-0005). Fluorescence was measured on a WALLAC Victor 2 plate reader and reported as relative fluorescence units (RFU). Data were plotted using GraphPad Prism (v4.0a) and IC50's were calculated using a sigmoidal dose response curve fitting algorithm.
Test compounds were dissolved in dimethylsulphoxide (DMSO) to give a 20 mM working stock concentration. Each assay was set up as follows: 100 μl of 10 mM ATP is added to 1.25 ml 6 mM substrate peptide. The mixture was diluted with dH20 to 2.5 ml to make 2×ATP/substrate cocktail ([ATP]=[…], [substrate]=3 mM). The enzyme was immediately transferred from −80° C. to ice. The enzyme was allowed to thaw on ice. The mixture was microcentrifuged briefly at 4° C. to bring liquid to the bottom of the vial and returned immediately to ice. 10 μl of DTT (1.25 mM) was added to 2.5 ml of 4× HTScan™ Tyrosine Kinase Buffer (240 mM HEPES pH 7.5, 20 mM MgCl2, 20 mM MnCl, 12 mM NaVO3) to make DTT/Kinase buffer. 1.25 ml of DTT/Kinase buffer was transferred to enzyme tube to make a 4× reaction cocktail ([enzyme]=4 ng/μL in 4× reaction cocktail). 12.5 μl of the 4× reaction cocktail was incubated with 12.5 μl/well of prediluted compound of interest (usually around 10 μM) for 5 minutes at room temperature. 25 μl of 2×ATP/substrate cocktail is added to 25 μl/well preincubated reaction cocktail/compound. The reaction plate was incubated at room temperature for 30 minutes. 50 μl/well Stop Buffer (50 mM EDTA, pH 8) was added to stop the reaction. […] 615 nm fluorescence emission is detected using an appropriate Time-Resolved Plate Reader.

human PDGFR-beta = biological target: T2, human PDGFR-beta (Homo sapiens, UniProt P09619); assay: PDGFR-beta radioisotope kinase assay; type: biochemical; conditions: 100 μM ATP; for pIC50: read-out: PDGFRb IC50
T2 construct: fragment (amino acids 558-1106) amino-terminally fused to 6-histidine; 6xHis (N); made in house
T2 sequence (P09619 558-1106): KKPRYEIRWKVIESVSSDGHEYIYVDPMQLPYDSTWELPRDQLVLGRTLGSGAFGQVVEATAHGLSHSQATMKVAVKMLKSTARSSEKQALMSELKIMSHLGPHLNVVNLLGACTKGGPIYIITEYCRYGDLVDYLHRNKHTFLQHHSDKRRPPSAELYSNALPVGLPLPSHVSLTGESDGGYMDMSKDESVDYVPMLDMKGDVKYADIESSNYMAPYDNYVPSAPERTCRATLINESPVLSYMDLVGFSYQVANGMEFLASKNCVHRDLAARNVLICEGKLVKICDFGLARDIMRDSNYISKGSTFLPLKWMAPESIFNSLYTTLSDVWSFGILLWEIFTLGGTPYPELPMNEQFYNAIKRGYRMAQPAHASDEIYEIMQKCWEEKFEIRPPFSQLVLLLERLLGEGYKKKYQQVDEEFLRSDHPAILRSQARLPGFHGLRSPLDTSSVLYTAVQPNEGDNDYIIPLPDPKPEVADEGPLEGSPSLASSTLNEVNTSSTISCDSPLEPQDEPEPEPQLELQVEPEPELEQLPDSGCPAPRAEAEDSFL
Experimental: (a) An In Vitro Assay which-Determines the Ability of a Test Compound to Inhibit a Receptor Tyrosine Kinase.
The ability of compounds to inhibit receptor kinase (VEGFR2 and PDGFR-beta) activity was assayed using standard radioisotope assay for kinase. […] The proteins were purified using Ni2+/NTA agarose affinity column to purity
For PDGFR-beta assay, p33 ATP tracers were incubated with purified recombinant PDGFR-beta kinase to monitor the enzyme activity. In this assay, reactions were carried out in the presence of 0.4 mg/ml PDGFR-beta kinase and 200 nM of Abl peptide substrate ([…]). The reaction was carried out at 30° C. for 120 minutes in a final assay condition contained 20 mM Tris-HCl, pH 7.5, 100 mM NaCl, 0.05 mM EDTA, 0.05% NP-40, 1 mM DTT 50% glycerol and 100 μM ATP. An equal volume of 25% TCA was added to stop the reaction and precipitate the labeled peptides. Precipitated proteins were trapped onto glass fiber B filterplates and excess unlabeled p33 ATP was washed off. The plates were allowed to air-dry prior to the addition of 30 uL/well of Packard Microscint 20. The amount of incorporated isotope was measured using a Perkin Elmer TopCount plate reader. Different concentrations of compounds were added to reaction to assess the activity of compounds to inhibit PDGF-beta kinase. IC50 was calculated using Prism software with sigmoidal dose-response curve fitting.

T1 sequence (P10721 544-976): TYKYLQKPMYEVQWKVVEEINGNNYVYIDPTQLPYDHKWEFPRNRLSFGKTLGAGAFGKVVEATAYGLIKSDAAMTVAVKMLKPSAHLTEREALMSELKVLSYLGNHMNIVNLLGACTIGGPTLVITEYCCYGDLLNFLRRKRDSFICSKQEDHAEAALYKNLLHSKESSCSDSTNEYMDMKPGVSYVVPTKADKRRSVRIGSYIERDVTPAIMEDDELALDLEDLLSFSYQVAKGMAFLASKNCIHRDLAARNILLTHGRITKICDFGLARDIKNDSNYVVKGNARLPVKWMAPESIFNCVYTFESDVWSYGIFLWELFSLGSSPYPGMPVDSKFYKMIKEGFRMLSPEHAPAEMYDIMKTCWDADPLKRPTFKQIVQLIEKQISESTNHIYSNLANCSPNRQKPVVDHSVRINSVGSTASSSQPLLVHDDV

Compound	pIC50 (human c-Kit)	PDGFRb IC50 (human PDGFR-beta)	pIC50 (human PDGFR-beta)
COc1cc2c(Oc3ccc4[nH]c(C)cc4c3F)ncnc2cc1OCCCCCCC(=O)NO [Compound 11, 7-(4-(4-fluoro-2-methyl-1H-indol-5-yloxy)-6-methoxyquinazolin-7-yloxy)-N-hydroxyheptanamide]	> 7.00	Inactive	
COc1cc2c(Nc3ccc4[nH]c(C)cc4c3F)ncnc2cc1OCCCCCC(=O)NO [Compound 13, 6-(4-(4-fluoro-2-methyl-1H-indol-5-ylamino)-6-methoxyquinazolin-7-yloxy)-N-hydroxyhexanamide]	6.00 to 7.00		5.00 to 6.00
COc1cc2c(Nc3ccc4[nH]c(C)cc4c3F)ncnc2cc1OCCCCCCC(=O)NO [Compound 14, 7-(4-(4-fluoro-2-methyl-1H-indol-5-ylamino)-6-methoxy-quinazolin-7-yloxy)-N-hydroxyheptanamide]	6.00 to 7.00		< 5.00
Cc1cc2c(F)c(Nc3ncnc4cc(OCCCN5CCCC5)c(OCCCCCCC(=O)NO)cc34)ccc2[nH]1 [Compound 20, 7-(4-(4-Fluoro-2-methyl-1H-indol-5-ylamino)-7-(3-(pyrrolidin-1-yl)propoxy)quinazolin-6-yloxy)-N-hydroxyheptanamide]	6.00 to 7.00		< 5.00
